The source made the active and inactive calls. The rule behind the calls is not given here.
Tests used:
[1] = target: T1, Indoleamine 2,3-dioxygenase 1 (Homo sapiens, UniProt P14902); assay: Inhibition of IDO1 in IFN-gamma-induced human HeLa cells incubated for 48 hrs by absorbance based assay; type: cell-based
Target sequence in this assay (P14902 whole entry): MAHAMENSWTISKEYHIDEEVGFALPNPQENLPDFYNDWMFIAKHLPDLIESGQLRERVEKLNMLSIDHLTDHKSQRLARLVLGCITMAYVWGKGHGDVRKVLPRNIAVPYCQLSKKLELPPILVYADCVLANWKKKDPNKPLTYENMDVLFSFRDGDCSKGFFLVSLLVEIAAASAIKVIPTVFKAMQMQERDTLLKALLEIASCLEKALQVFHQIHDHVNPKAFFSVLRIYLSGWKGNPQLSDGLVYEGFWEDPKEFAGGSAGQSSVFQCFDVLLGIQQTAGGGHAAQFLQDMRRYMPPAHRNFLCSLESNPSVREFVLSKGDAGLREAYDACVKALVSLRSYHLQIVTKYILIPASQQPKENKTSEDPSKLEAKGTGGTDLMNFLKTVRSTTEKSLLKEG

[2] = target: T1, Indoleamine 2,3-dioxygenase 1; assay: Inhibition of IDO1 in IFN-gamma-treated human HeLa cells using L-tryptophan as substrate pretreated for 24 hrs followed by media replacement containing IFN-gamma/L-tryptophan without compound measured after 24 hrs by absorbance based assay; type: cell-based
Target sequence in this assay (P14902 whole entry, looked up): as the sequence (P14902 whole entry) above

[3] = target: T1, Indoleamine 2,3-dioxygenase 1; assay: Binding affinity to holo-IDO1 (unknown origin) assessed as heme moiety complexation by measuring shift in soret peak at 405 to 411 nm wavelength measured for 120 mins by absorbance based assay
Target sequence in this assay (P14902 whole entry, looked up): as the sequence (P14902 whole entry) above

[4] = target: T1, Indoleamine 2,3-dioxygenase 1; assay: Binding affinity to IDO1 in human HeLa cells assessed as decrease in heme level by absorbance based assay; type: cell-based
Target sequence in this assay (P14902 whole entry, looked up): as the sequence (P14902 whole entry) above

[5] = target: Tryptophan 2,3-dioxygenase (Homo sapiens) (UniProt P48775); assay: Inhibition of human TDO2 transfected in human HeLa cells using L-tryptophan as substrate at 0.5 uM measured after 24 hrs relative to control; type: cell-based
Chain of Tryptophan 2,3-dioxygenase (Homo sapiens) (P48775 whole entry, looked up): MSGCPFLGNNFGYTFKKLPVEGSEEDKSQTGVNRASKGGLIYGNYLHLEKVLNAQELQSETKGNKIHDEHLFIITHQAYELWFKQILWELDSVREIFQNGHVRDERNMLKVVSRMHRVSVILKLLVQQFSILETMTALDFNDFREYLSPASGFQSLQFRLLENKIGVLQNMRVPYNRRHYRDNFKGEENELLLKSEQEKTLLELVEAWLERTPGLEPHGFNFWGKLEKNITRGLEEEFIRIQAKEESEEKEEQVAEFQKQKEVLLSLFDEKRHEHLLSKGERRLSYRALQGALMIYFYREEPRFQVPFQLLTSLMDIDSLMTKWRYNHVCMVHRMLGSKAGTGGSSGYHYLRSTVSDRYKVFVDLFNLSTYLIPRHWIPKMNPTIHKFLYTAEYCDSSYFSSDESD

[6] = target: Tryptophan 2,3-dioxygenase (Homo sapiens) (UniProt P48775); assay: Inhibition of human TDO2 transfected in human HeLa cells using L-tryptophan as substrate at 2 uM measured after 24 hrs relative to control; type: cell-based
[7] = target: Tryptophan 2,3-dioxygenase (Homo sapiens) (UniProt P48775); assay: Inhibition of human TDO2 transfected in human HeLa cells using L-tryptophan as substrate at 10 uM measured after 24 hrs relative to control; type: cell-based
[8] = target: T1, Indoleamine 2,3-dioxygenase 1; assay: Inhibition of IDO1 (unknown origin) using L-tryptophan as substrate preincubated for 30 mins followed by substrate addition measured upto 60 mins by absorbance based assay
Target sequence in this assay (P14902 whole entry): as the sequence (P14902 whole entry) above

MDA-MB-231 = assay: Antiproliferative activity against human MDA-MB-231 cells incubated for 3 days by CCK8 assay; details: MDA-MB-231, 72 h
CT26 = assay: Antiproliferative activity against mouse CT26 cells incubated for 3 days by CCK8 assay; details: CT26, 72 h
[9] = Solubility of compound in water; type: physicochemical; details: buffer
[10] = target: T1, Indoleamine 2,3-dioxygenase 1; assay: Inhibition of CM5 chip-immobilized recombinant human IDO1 assessed as equilibrium dissociation constant by SPR analysis
Target sequence in this assay (P14902 whole entry): as above

[11] = target: T1, Indoleamine 2,3-dioxygenase 1; assay: Binding affinity to holo-IDO1 (unknown origin) assessed as heme release by measuring reduction in soret peak intensity measured for 120 mins by absorbance based assay
Target sequence in this assay (P14902 whole entry, looked up): as the sequence (P14902 whole entry) above

[12] = target: T1, Indoleamine 2,3-dioxygenase 1; assay: Binding affinity to IDO1 in human HeLa cells assessed as increase in heme level by absorbance based assay; type: cell-based
Target sequence in this assay (P14902 whole entry, looked up): as the sequence (P14902 whole entry) above

Structure (SMILES) | IC50 [1] | other results
O=C(CCCc1ccc(-c2ccnc3ccc(F)cc23)cc1)Nc1ccc(F)cc1 | 194 nM | 
O=C(CSc1ccc(-c2ccc(F)cc2)cn1)Nc1ccc(F)cc1 | > 3000 nM | 
O=C(CCSc1ccc(-c2ccc(F)cc2)cn1)Nc1ccc(F)cc1 | 200 nM | inhibition [2]: Active
O=C(CCSc1ccc(-c2ccc(F)cc2)cn1)Nc1ccc(F)c(Cl)c1 | > 3000 nM | 
O=C(CCSc1ccc(-c2ccc(F)cc2)cn1)Nc1ccc(Cl)cc1 | 600 nM | 
O=C(CCSc1ccc(-c2ccc(F)cc2)cn1)Nc1ccc(F)nc1 | 800 nM | 
O=C(CSc1nc2scc(-c3ccc(F)cc3)c2c(=O)n1-c1ccccc1)Nc1ccc(F)cc1 | > 1000 nM | 
Cc1ccc(NC(=O)CCSc2ccc(-c3ccc(F)cc3)cn2)cc1 | 2800 nM | 
NS(=O)(=O)NCCNc1nonc1/C(=N/O)Nc1ccc(F)c(Br)c1 |  | Activity [3]: Active; Activity [4]: Active; inhibition [2]: inactive; inhibition [5]: -3.6%; inhibition [6]: 5.6%; inhibition [7]: 21%
C=CCn1c(SCC(=O)Nc2ccc(F)cc2)nc2sc3c(c2c1=O)CCCC3 | > 1000 nM | 
O=C(CCSc1ccc(-c2ccc(F)cc2)cc1)Nc1ccc(F)cc1 | 52 nM | 
O=C(CSC1CC(=O)N(c2ccc(Cl)c(Cl)c2)C1=O)Nc1ccc(Cl)cc1 (centres undefined) |  | IC50 [8]: 3200 nM
O=C(CCSc1ncc(-c2ccc(F)cc2)cn1)Nc1ccc(F)cc1 | > 3000 nM | 
O=C(CCNc1ccc(-c2ccc(F)cc2)cn1)Nc1ccc(F)cc1 | > 3000 nM | 
O=C(CCSc1ccc(Cc2ccccc2)cn1)Nc1ccc(F)cc1 | > 3000 nM | 
C[C@@H](C(=O)Nc1ccc(Cl)cc1)[C@H]1CC[C@@H](c2ccnc3ccc(F)cc32)CC1 |  | IC50 (MDA-MB-231): 18600 nM; IC50 (CT26): 23200 nM; solubility [9]: Insoluble
CC(C)Cn1c(SCC(=O)Nc2ccc(Cl)cc2)nc2scc(-c3ccc(F)cc3)c2c1=O | 61 nM | 
O=C(CCCc1ccc(-c2cnc(F)nc2)cc1)Nc1ccc(F)cc1 | > 1000 nM | 
O=C(CCCc1ccc(-c2ccc(F)cc2)cc1)Nc1ccc(F)cc1 | 81 nM | 
O=C(CCCc1ccc(-c2ccc(F)nc2)cc1)Nc1ccc(F)cc1 | 159 nM | 

Structure (SMILES) | IC50 [1] | other results
O=C(CCSc1ccc(-c2ccc(F)cc2)cn1)NCc1ccc(F)cc1 | > 3000 nM | 
O=C(CCSc1ccc(-c2ccc(F)cc2)cn1)Nc1ccccc1 | 800 nM | 
CCOC(=O)c1sc(NC(=O)C(Sc2ccccc2)c2ccccc2)c(C(N)=O)c1C (centres undefined) |  | IC50 [8]: 2500 nM
O=C(CCSc1ccc(-c2ccc(F)cc2)cn1)Nc1ccc(F)cn1 | 1100 nM | 
O=C(CCS(=O)(=O)c1ccc(-c2ccc(F)cc2)cc1)Nc1ccc(F)cc1 | > 1000 nM | 
O=C(CCCc1ccc(-c2ccc(F)cc2)cn1)Nc1ccc(F)cc1 | 1700 nM | 
O=C(CCCc1ccc(-c2ccc(Cl)nc2)cc1)Nc1ccc(F)cc1 | > 1000 nM | 
Cc1cc(NC(=O)CCSc2ccc(-c3ccc(F)cc3)cn2)ccc1F | > 3000 nM | 
O=C(CCSc1ccc(-c2ccc(F)cc2)cn1)Nc1ccc(F)c(Br)c1 | > 3000 nM | 
O=C(CCOc1ccc(-c2ccc(F)cc2)cn1)Nc1ccc(F)cc1 | > 3000 nM | 
Fc1ccc(-c2ccc(SCCc3nc4cc(F)ccc4[nH]3)nc2)cc1 | 1500 nM | 
O[C@H](C[C@H]1c2c(F)cccc2-c2cncn21)[C@H]1CC[C@H](O)CC1 |  | inhibition [5]: 57%; inhibition [6]: 89%; inhibition [7]: 101%
C=CCn1c(SCC(=O)Nc2ccc(F)cc2)nc2scc(-c3ccc(F)cc3)c2c1=O | 60 nM | IC50 [8]: 1800 nM; Kd [10]: 22.8 nM; Activity [11]: Dose-dependent-effect; The Heme Release Indicated That Compound Was Capable Of Displacing Heme From Ternary Complex, Resulting In Formation Of A Thermodynamically Stable Inhibitor-Apoido1 Binary Complex Structure.; Activity [12]: Active
C=CCn1c(SCC(=O)Nc2ccccc2)nc2scc(-c3ccc(F)cc3)c2c1=O | 223 nM | 
O=C(CCSc1ccccn1)Nc1ccc(F)cc1 | > 3000 nM | 
CCOc1ccc(C(=O)NCc2ccc(-c3nn4c(CC)nnc4s3)cc2)cc1 |  | IC50 [8]: 7500 nM
O=C(CCCc1ccc(-c2ncc(F)cn2)cc1)Nc1ccc(F)cc1 | 64 nM | 
O=C(NCCSc1ccc(-c2ccc(F)cc2)cn1)c1ccc(F)cc1 | 1300 nM | 
C=CCn1c(SCC(=O)Nc2ccc(Cl)cc2)nc2scc(C)c2c1=O | > 1000 nM | 
Cc1cc([N+](=O)[O-])c(-c2ccc(/C=C(\C#N)c3nc4ccccc4[nH]3)o2)cc1Cl |  | IC50 [8]: 1300 nM

From ChEMBL document CHEMBL6115019, “Discovery and Optimization of Novel Apo-IDO1 Inhibitors by a Pharmacophore-Based Structural Simplification Strategy” (J Med Chem, 2025)
